Results reported in the NIST ThermoML archive (doi:10.1021/acs.jced.8b01193).
± gives the expanded uncertainty stated by the source.

Experiments:
[1] = Crystal; DSC
[2] = Molar enthalpy of transition or fusion; conditions: Crystal; DSC

Triple point temperature [1]: 425.95 ± 0.93 K
Molar enthalpy of transition or fusion [2]: 3.9 ± 0.12 kcal/mol
SMILES: O=C1CCCCCCCCCCCN1 [2-azacyclotridecanone]
